Laboratory results published in publication PMC9558907, “Synthesis and pharmacological evaluation of newly detected synthetic cannabinoid receptor agonists AB-4CN-BUTICA, MMB-4CN-BUTINACA, MDMB-4F-BUTICA, MDMB-4F-BUTINACA and their analogs” (Frontiers in Psychiatry, 2022).

What was measured:
human CB1 [1] = molecular target: T1, human CB1 (Homo sapiens, UniProt P21554); experiment: fluorescence-based membrane potential assay (GIRK activation) in AtT20 cells; format: cell-based; design: expressed in transfected cells; host or cells: mouse AtT20 FlpIn cells; conditions: for hCB1 Emax ±SEM: normalised to 1 μM CP55,940; for hCB1 maximal response at 10 μM (footnote d): highest concentration tested, curve not fitted
T1 sequence (P21554 whole entry): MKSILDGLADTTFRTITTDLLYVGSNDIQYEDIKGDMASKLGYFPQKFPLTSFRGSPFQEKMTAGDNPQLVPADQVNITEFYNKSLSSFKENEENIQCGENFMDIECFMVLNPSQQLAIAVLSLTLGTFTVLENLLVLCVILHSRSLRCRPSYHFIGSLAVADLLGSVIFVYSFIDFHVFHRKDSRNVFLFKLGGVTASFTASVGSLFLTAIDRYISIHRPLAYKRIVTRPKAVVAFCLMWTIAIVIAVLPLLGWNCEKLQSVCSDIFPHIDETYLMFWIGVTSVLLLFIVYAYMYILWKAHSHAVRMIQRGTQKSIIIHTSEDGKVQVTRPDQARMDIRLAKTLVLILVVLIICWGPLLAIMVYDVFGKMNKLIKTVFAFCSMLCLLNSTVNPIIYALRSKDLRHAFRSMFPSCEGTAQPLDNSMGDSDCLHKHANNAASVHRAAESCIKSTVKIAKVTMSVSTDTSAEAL

human CB2 [2] = molecular target: T2, human CB2 (Homo sapiens, UniProt P34972); experiment: as above; format: cell-based; design: expressed in transfected cells; host or cells: mouse AtT20 FlpIn cells; conditions: for hCB2 Emax ±SEM: normalised to 1 μM CP55,940
T2 sequence (P34972 whole entry): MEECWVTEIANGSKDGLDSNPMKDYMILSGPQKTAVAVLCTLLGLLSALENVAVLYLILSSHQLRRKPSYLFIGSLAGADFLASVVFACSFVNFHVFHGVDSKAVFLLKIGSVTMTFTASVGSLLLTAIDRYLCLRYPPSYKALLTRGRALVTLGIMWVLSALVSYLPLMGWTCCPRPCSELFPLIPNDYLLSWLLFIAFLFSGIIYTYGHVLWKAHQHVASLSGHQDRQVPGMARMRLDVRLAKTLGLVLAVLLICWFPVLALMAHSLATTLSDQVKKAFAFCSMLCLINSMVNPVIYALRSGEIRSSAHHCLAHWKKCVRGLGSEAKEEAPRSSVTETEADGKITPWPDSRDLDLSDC

human CB1 [3] = molecular target: T1, human CB1; experiment: competitive radioligand binding assay, displacement of [3H]CP55,940, HEK cell membranes; design: expressed in transfected cells; host or cells: HEK293 cells, P2 membrane preparation; conditions: [3H]CP55,940 1 nM
human CB2 [4] = molecular target: T2, human CB2; experiment: as above; design: expressed in transfected cells; host or cells: HEK293 cells, P2 membrane preparation; conditions: [3H]CP55,940 1 nM
[5] = hCB1 EC50, AtT20-hCB1, value in brackets after pEC50
[6] = hCB2 EC50, AtT20-hCB2, value in brackets after pEC50
[7] = hCB1 Ki, value in brackets after pKi
[8] = hCB2 Ki, value in brackets after pKi
[9] = hCB1 pEC50 ±SEM, AtT20-hCB1, DNC = did not converge, ND = < 50% change in fluorescence at 10 μM
[10] = hCB2 pKi ±SEM, mean ± SEM of 3 to 6 independent experiments
[11] = AtT20-hCB1, DNC = did not converge, ND = < 50% change in fluorescence at 10 μM
[12] = hCB1 pKi ±SEM, mean ± SEM of 3 to 6 independent experiments

Row | SMILES | melting point [°C] | hCB1 Emax ±SEM (human CB1 [1]; AtT20-hCB1) | EC50 (human CB1 [1]; [5]) [nM] | hCB2 Emax ±SEM (human CB2 [2]; AtT20-hCB2) | EC50 (human CB2 [2]; [6]) [nM] | Ki (human CB1 [3]; [7]) [nM] | Ki (human CB2 [4]; [8]) [nM] | EC50 (human CB1 [1]; [9]) [nM] | Ki (human CB2 [4]; [10]) [nM] | hCB1 maximal response at 10 μM (footnote d) (human CB1 [1]; AtT20-hCB1) | hCB1 maximal response at 10 μM (footnote d) (human CB1 [1]; AtT20-hCB1, listed as APP-4CN-BUTICA (10)) | hCB1 pEC50 ±SEM (human CB1 [1]; [11]) | hCB1 maximal response at 10 μM (footnote d) (human CB1 [1]; AtT20-hCB1, listed as APP-4CN-BUTINACA (13)) | Ki (human CB1 [3]; [12]) [nM] | hCB1 maximal response at 10 μM (footnote d) (human CB1 [1]; AtT20-hCB1, listed as APP-4CN-BUT7AICA (16)) | hCB2 Emax ±SEM (human CB2 [2]; AtT20-hCB2, listed as APP-4CN-BUT7AICA (16)) | EC50 (human CB2 [2]; hCB2 pEC50 ±SEM, AtT20-hCB2) [nM]
1 | CC(C)[C@H](NC(=O)c1cn(CCCCC#N)c2ccccc12)C(N)=O [Compound 5, (S)-N-(1-amino-3-methyl-1-oxobutan-2-yl)-1-(4-cyanobutyl)-1H-indole-3-carboxamide] | 177 to 180 | 111 ± 5 % CP55,940 | 400 | 100 ± 2 % CP55,940 | 75.9 | 550 | 603 |  |  |  |  |  |  |  |  |  | 
2 | COC(=O)[C@@H](NC(=O)c1nn(CCCCC#N)c2ccccc12)C(C)C [Compound 6, methyl (1-(4-cyanobutyl)-1H-indazole-3-carbonyl)-L-valinate] |  | 117 ± 6 % CP55,940 | 3.61 | 101 ± 4 % CP55,940 | 2.14 | 17.4 | 6.46 |  |  |  |  |  |  |  |  |  | 
3 | COC(=O)[C@@H](NC(=O)c1cn(CCCCF)c2ccccc12)C(C)(C)C [Compound 7, methyl (S)-2-(1-(4-fluorobutyl)-1H-indole-3-carboxamido)-3,3-dimethylbutanoate] |  | 114 ± 3 % CP55,940 | 3.43 | 110 ± 3 % CP55,940 | 2.87 | 13.2 |  | 3.39 |  |  |  |  |  |  |  |  | 
4 | COC(=O)[C@@H](NC(=O)c1nn(CCCCF)c2ccccc12)C(C)(C)C [Compound 8, methyl (S)-2-(1-(4-fluorobutyl)-1H-indazole-3-carboxamido)-3,3-dimethylbutanoate] |  | 106 ± 3 % CP55,940 |  | 103 ± 5 % CP55,940 | 3.28 | 6.2 | 0.1 | 0.407 | 0.12 |  |  |  |  |  |  |  | 
5 | CC(C)(C)[C@H](NC(=O)c1cn(CCCCC#N)c2ccccc12)C(N)=O [Compound 9, (S)-N-(1-amino-3,3-dimethyl-1-oxobutan-2-yl)-1-(4-cyanobutyl)-1H-indole-3-carboxamide] | 101 to 103 | 115 ± 5 % CP55,940 | 10.2 | 106 ± 6 % CP55,940 | 10.4 | 6.8 | 5.5 |  |  |  |  |  |  |  |  |  | 
6 | N#CCCCCn1cc(C(=O)N[C@@H](Cc2ccccc2)C(N)=O)c2ccccc21 [Compound 10, (S)-N-(1-amino-1-oxo-3-phenylpropan-2-yl)-1-(4-cyanobutyl)-1H-indole-3-carboxamide] | 84 to 85 |  |  | 95 ± 3 % CP55,940 | 98.4 | 3310 | 776 |  |  | submaximal agonist activity | 85 ± 3^d % CP55,940 | DNC^b |  |  |  |  | 
7 | CC(C)[C@H](NC(=O)c1nn(CCCCC#N)c2ccccc12)C(N)=O [Compound 11, (S)-N-(1-amino-3-methyl-1-oxobutan-2-yl)-1-(4-cyanobutyl)-1H-indazole-3-carboxamide] |  | 111 ± 5 % CP55,940 | 26.3 | 103 ± 1 % CP55,940 | 4.97 | 43.7 | 24 |  |  |  |  |  |  |  |  |  | 
8 | CC(C)(C)[C@H](NC(=O)c1nn(CCCCC#N)c2ccccc12)C(N)=O [Compound 12, (S)-N-(1-amino-3,3-dimethyl-1-oxobutan-2-yl)-1-(4-cyanobutyl)-1H-indazole-3-carboxamide] | 82 to 86 | 109 ± 2 % CP55,940 |  | 96 ± 2 % CP55,940 | 1.76 | 8.13 | 2.57 | 0.331 |  |  |  |  |  |  |  |  | 
9 | N#CCCCCn1nc(C(=O)N[C@@H](Cc2ccccc2)C(N)=O)c2ccccc21 [Compound 13, (S)-N-(1-amino-1-oxo-3-phenylpropan-2-yl)-1-(4-cyanobutyl)-1H-indazole-3-carboxamide] |  |  |  | 107 ± 11 % CP55,940 | 74.1 | 1100 | 170 |  | 166 | 104 % CP55,940 |  | DNC^b | 104 ± 3^d % CP55,940 | 1070 |  |  | 
10 | CC(C)[C@H](NC(=O)c1cn(CCCCC#N)c2ncccc12)C(N)=O [Compound 14, (S)-N-(1-amino-3-methyl-1-oxobutan-2-yl)-1-(4-cyanobutyl)-1H-pyrrolo[2,3-b]pyridine-3-carboxamide] | 181 to 182 |  |  | 87 ± 5 % CP55,940 | 390 | 2570 | 3240 |  |  | 80 ± 3^d % CP55,940 |  | DNC^b |  |  |  |  | 
11 | CC(C)(C)[C@H](NC(=O)c1cn(CCCCC#N)c2ncccc12)C(N)=O [Compound 15, (S)-N-(1-amino-3,3-dimethyl-1-oxobutan-2-yl)-1-(4-cyanobutyl)-1H-pyrrolo[2,3-b]pyridine-3-carboxamide] | 93 to 94 | 102 ± 4 % CP55,940 | 14 | 96 ± 1 % CP55,940 | 6.09 | 155 | 145 |  |  |  |  |  |  |  |  |  | 
12 | N#CCCCCn1cc(C(=O)N[C@@H](Cc2ccccc2)C(N)=O)c2cccnc21 [Compound 16, (S)-N-(1-amino-1-oxo-3-phenylpropan-2-yl)-1-(4-cyanobutyl)-1H-pyrrolo[2,3-b]pyridine-3-carboxamide] | 182 to 184 |  |  |  | 232 |  | 1860 |  |  | submaximal agonist activity |  |  |  | > 10000 | 25 ± 3^d % CP55,940 | 72 ± 3 % CP55,940 | 229
13 | COC(=O)[C@@H](NC(=O)c1cn(CCCCC#N)c2ccccc12)C(C)C [Compound 17, methyl (1-(4-cyanobutyl)-1H-indole-3-carbonyl)-L-valinate] |  | 105 ± 3 % CP55,940 | 50.8 | 95 ± 3 % CP55,940 | 13.5 | 159 | 85.1 |  |  |  |  |  |  |  |  |  | 
14 | COC(=O)[C@@H](NC(=O)c1nn(CCCCC#N)c2ccccc12)C(C)(C)C [Compound 20, methyl (S)-2-(1-(4-cyanobutyl)-1H-indazole-3-carboxamido)-3,3-dimethylbutanoate] |  | 113 ± 2 % CP55,940 | 0.72 | 101 ± 2 % CP55,940 | 3.56 | 1.29 | 0.295 |  |  |  |  |  |  |  |  |  | 
15 | COC(=O)[C@@H](NC(=O)c1cn(CCCCC#N)c2ncccc12)C(C)C [Compound 22, methyl (1-(4-cyanobutyl)-1H-pyrrolo[2,3-b]pyridine-3-carbonyl)-L-valinate] |  | 114 ± 7 % CP55,940 | 430 | 95 ± 4 % CP55,940 | 68.3 | 1510 | 316 |  |  |  |  |  |  |  |  |  | 
16 | COC(=O)[C@@H](NC(=O)c1cn(CCCCC#N)c2ncccc12)C(C)(C)C [Compound 23, methyl (S)-2-(1-(4-cyanobutyl)-1H-pyrrolo[2,3-b]pyridine-3-carboxamido)-3,3-dimethylbutanoate] |  | 114 ± 5 % CP55,940 | 10.3 | 106± 5 % CP55,940 | 12.6 | 9.2 | 2.4 |  | 2.45 |  |  |  |  | 9.33 |  |  | 
17 | CC(C)[C@H](NC(=O)c1cn(CCCCF)c2ncccc12)C(N)=O [Compound 31, (S)-N-(1-amino-3-methyl-1-oxobutan-2-yl)-1-(4-fluorobutyl)-1H-pyrrolo[2,3-b]pyridine-3-carboxamide] |  |  |  | 98 ± 4 % CP55,940 | 137 |  | 1400 |  | 1380 | 82 ± 4^d % CP55,940 |  | DNC^b |  | > 10000 |  |  | 
18 | COC(=O)[C@@H](NC(=O)c1nn(CCCCF)c2ccccc12)C(C)C [Compound 36, methyl (1-(4-fluorobutyl)-1H-indazole-3-carbonyl)-L-valinate] |  | 103 ± 2 % CP55,940 | 3.93 | 100 ± 2 % CP55,940 | 3.76 |  | 1.6 |  | 1.55 |  |  |  |  | 31.6 |  |  | 
19 | COC(=O)[C@H](Cc1ccccc1)NC(=O)c1nn(CCCCF)c2ccccc12 [Compound 37, methyl (1-(4-fluorobutyl)-1H-indazole-3-carbonyl)-L-phenylalaninate] |  | 106 ± 3 % CP55,940 | 5.62 | 101 ± 3 % CP55,940 | 4.65 |  | 0.5 |  | 0.457 |  |  |  |  | 33.9 |  |  | 
